In article PMC9075979 (Molecular Therapy, 2022):

Target: Omicron variant RBD or S1 domains-hACE2 binding (Homo sapiens, UniProt Q9BYF1)
Sequence (Q9BYF1 18-740, stated change not applied): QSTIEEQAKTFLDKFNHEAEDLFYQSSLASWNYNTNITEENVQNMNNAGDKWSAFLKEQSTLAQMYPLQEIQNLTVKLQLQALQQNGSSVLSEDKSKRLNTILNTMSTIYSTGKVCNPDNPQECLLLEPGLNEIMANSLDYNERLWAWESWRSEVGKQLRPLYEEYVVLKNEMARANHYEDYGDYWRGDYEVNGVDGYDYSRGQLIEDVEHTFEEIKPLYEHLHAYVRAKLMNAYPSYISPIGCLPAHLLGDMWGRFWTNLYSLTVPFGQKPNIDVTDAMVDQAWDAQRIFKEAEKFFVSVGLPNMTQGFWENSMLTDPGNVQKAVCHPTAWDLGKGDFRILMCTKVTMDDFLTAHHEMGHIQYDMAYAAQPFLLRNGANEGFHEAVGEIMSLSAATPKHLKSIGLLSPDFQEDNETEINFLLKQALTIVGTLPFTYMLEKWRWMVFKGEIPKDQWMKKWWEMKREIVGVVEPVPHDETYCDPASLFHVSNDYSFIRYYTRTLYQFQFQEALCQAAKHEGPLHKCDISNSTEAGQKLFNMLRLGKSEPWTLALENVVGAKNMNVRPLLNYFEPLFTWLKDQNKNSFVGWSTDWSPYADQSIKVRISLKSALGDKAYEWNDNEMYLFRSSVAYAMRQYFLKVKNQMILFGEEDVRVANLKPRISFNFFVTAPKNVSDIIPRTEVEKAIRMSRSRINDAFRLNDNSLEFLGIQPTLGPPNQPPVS

c1ccc(-c2ccc(C(c3ccccc3)n3ccnc3)cc2)cc1 (stereo not shown) [bifonazole]
binding of Omicron variant RBD or S1 bioreporters to hACE2: significantly reduced binding
